Experiments:
Assay type in all cases: in vivo
[1] = test system: Glycine max (GLXMA); assay: Post-emergence effects on crop plants, section F (Table F4); settings: Glycine max, 504 h, application rate 320 g/ha, read-out: post-emergence activity against GLXMA in %
Text: (§1) Seeds of mono- and dicotyledonous weed plants and crop plants were sown, in plastic or organic planting pots, in sandy loam, covered with soil and grown in a greenhouse under controlled growth conditions. 2 to 3 weeks after sowing, the test plants were sprayed in the single-leaf stage. The compounds according to the invention, formulated in form of wettable powders (WP) or as emulsifiable concentrates (EC), were sprayed onto the green plant parts as aqueous suspension or emulsion, with the addition of 0.5% of an additive, at an application rate of 600 l of water/ha (converted). The test plants were placed in the greenhouse for ca. 3 weeks under optimum growth conditions, and then the effect of the preparations was assessed visually in comparison with untreated controls (herbicidal effect in percent (%): 100% effect=plants have died off, 0% effect=as control plants). Tables F1 to F4 below show the effects of selected compounds of the general formula (I) according to Table 1 on various crop plants and an application rate corresponding to 320 g/ha or below obtained by the experimental procedure mentioned above.

[2] = test system: Zea mays (ZEAMX); assay: Post-emergence effects on crop plants, section F (Table F1); settings: Zea mays, 504 h, application rate 80 g/ha, read-out: post-emergence activity against ZEAMX in %
Text: as §1

[3] = test system: Zea mays (ZEAMX); assay: Pre-emergence effects on crop plants, section D (Table D1); settings: application rate 320 g/ha; visual grading after ca. 3 weeks
Text: (§2) Seeds of mono- and dicotyledonous weed plants and crop plants were sown, in plastic or organic planting pots, in sandy loam and covered with soil. The compounds according to the invention, formulated in the form of wettable powders (WP) or as emulsifiable concentrates (EC), were applied to the surface of the covering soil as aqueous suspension or emulsion, with the addition of 0.5% of an additive, at an application rate of 600 l of water/ha (converted).
(§3) Following treatment, the pots were placed in a greenhouse and kept under optimum growth conditions for the test plants. The visual grading of the damage to the test plants was carried out after ca. 3 weeks in comparison to untreated controls (herbicidal effect in percent (%): 100% effect=plants have died off, 0% effect=as control plants).
(§4) Tables D1 to D5 below show the effects of various compounds of the general formula (I) according to Table 1 on various crop plants and an application rate corresponding to 320 g/ha or below obtained by the experimental procedure mentioned above in Biological Examples, Section C.

[4] = test system: Triticum aestivum (TRZAS); assay: Post-emergence effects on crop plants, section F (Table F2); settings: Triticum aestivum, 504 h, application rate 320 g/ha, read-out: post-emergence activity against TRZAS in %
Text: as §1

[5] = test system: Setaria viridis (SETVI); assay: Herbicidal pre-emergence action, section C (Table C8); settings: Setaria viridis, pre-emergence, 504 h; application rate 320 g/ha; visual grading after ca. 3 weeks; read-out: pre-emergence activity against SETVI in %
Text: (§5) Seeds of mono- and dicotyledonous weed plants and crop plants were sown, in plastic or organic planting pots, in sandy loam and covered with soil. The compounds according to the invention, formulated in the form of wettable powders (WP) or as emulsifiable concentrates (EC), were applied to the surface of the covering soil as aqueous suspension or emulsion, with the addition of 0.5% of an additive, at an application rate of 600 l of water/ha (converted). Following treatment, the pots were placed in a greenhouse and kept under optimum growth conditions for the test plants. The visual grading of the damage to the test plants was carried out after ca. 3 weeks in comparison to untreated controls (herbicidal effect in percent (%): 100% effect=plants have died off, 0% effect=as control plants).

[6] = test system: Digitaria sanguinalis (DIGSA); assay: Herbicidal pre-emergence action, section C (Table C12); settings: Digitaria sanguinalis, pre-emergence, 504 h; application rate 320 g/ha; visual grading after ca. 3 weeks; read-out: pre-emergence activity against DIGSA in %
Text: as §5

[7] = test system: Triticum aestivum (TRZAS); assay: Pre-emergence effects on crop plants, section D (Table D2); settings: application rate 320 g/ha; visual grading after ca. 3 weeks
Text: as §2, §3, §4

[8] = test system: Echinochloa crus-galli (ECHCG); assay: Herbicidal pre-emergence action, section C (Table C3); settings: Echinochloa crus-galli, pre-emergence, 504 h; application rate 320 g/ha; visual grading after ca. 3 weeks vs untreated controls; read-out: pre-emergence activity against ECHCG in %
Text: as §5

[9] = test system: Amaranthus retroflexus (AMARE); assay: Herbicidal pre-emergence action, section A (Table A11); settings: application rate 1280 g/ha
Text: as §5, with “plants” for “plants and crop plants”, “sown” for “sown,”, “pots (double sowings with one species of mono- and one species of dicotyledonous weed plants per pot),” for “or organic planting pots,”, “loam,” for “loam”, “water per hectare” for “water/ha”

[10] = test system: Stellaria media (STEME); assay: Herbicidal pre-emergence action, section A (Table A9); settings: application rate 1280 g/ha
Text: as §5, with “plants” for “plants and crop plants”, “sown” for “sown,”, “pots (double sowings with one species of mono- and one species of dicotyledonous weed plants per pot),” for “or organic planting pots,”, “loam,” for “loam”, “water per hectare” for “water/ha”

[11] = test system: Poa annua (POAAN); assay: Herbicidal post-emergence action, section B (Table B7); settings: application rate 1280 g/ha; visual rating about 3 weeks after treatment vs untreated controls
Procedure: (§6) Seeds of mono- and dicotyledonous weed plants were placed in plastic pots in sandy loam soil (doubly sown with in each case one species of mono- or dicotyledonous weed plants per pot), covered with soil and cultivated in a greenhouse under controlled growth conditions. 2 to 3 weeks after sowing, the test plants were treated at the one-leaf stage. The compounds of the invention, formulated in the form of wettable powders (WP) or as emulsion concentrates (EC), were applied onto the green parts of the plants as aqueous suspension or emulsion with addition of 0.5% additive at a water application rate of 600 liters per hectare (converted). After the test plants had been kept in the greenhouse under optimum growth conditions for about 3 weeks, the activity of the preparations was rated visually in comparison to untreated controls. For example, 100% activity=the plants have died, 0% activity=like control plants.

[12] = test system: Kochia scoparia (KCHSC); assay: Herbicidal pre-emergence action, section A (Table A4); settings: application rate 1280 g/ha; visual grading after ca. 3 weeks vs untreated controls
Text: as §5, with “plants” for “plants and crop plants”, “sown” for “sown,”, “pots (double sowings with one species of mono- and one species of dicotyledonous weed plants per pot),” for “or organic planting pots,”, “loam,” for “loam”, “water per hectare” for “water/ha”

[13] = test system: Digitaria sanguinalis (DIGSA); assay: Herbicidal pre-emergence action, section A (Table A12); settings: application rate 1280 g/ha
Text: as §5, with “plants” for “plants and crop plants”, “sown” for “sown,”, “pots (double sowings with one species of mono- and one species of dicotyledonous weed plants per pot),” for “or organic planting pots,”, “loam,” for “loam”, “water per hectare” for “water/ha”

[14] = test system: Digitaria sanguinalis (DIGSA); assay: Herbicidal post-emergence action, section B (Table B12); settings: application rate 1280 g/ha; visual rating about 3 weeks after treatment vs untreated controls
Procedure: as §6

| SMILES | percent crop plant damage at 320 g/ha [1] [%] | percent crop plant damage (phytotoxicity) on Zea mays, post-emergence at 80 g/ha [2] [%] | pre-emergence activity against ZEAMX in % (crop plant damage) [3] [%] | percent crop plant damage (wheat, post-emergence) at 320 g/ha [4] [%] | pest or weed control at 320 g/ha [5] [%] | pest or weed control at 320 g/ha [6] [%] | pre-emergence activity against TRZAS in % (crop plant damage) [7] [%] | pest or weed control at 320 g/ha [8] [%] | pre-emergence activity against AMARE in % [9] [%] | pre-emergence activity against STEME in % [10] [%] | post-emergence activity against POAAN in % [11] [%] | pre-emergence activity against KCHSC in % [12] [%] | pre-emergence activity against DIGSA in % [13] [%] | post-emergence activity against DIGSA in % [14] [%] |
| --- | --- | --- | --- | --- | --- | --- | --- | --- | --- | --- | --- | --- | --- | --- |
| COC(=O)CCC(=O)N1CSc2cc(Br)c(-c3sccc3Cl)nc21 [Example I-077, methyl 4-[6-bromo-5-(3-chloro-2-thienyl)-2H-thiazolo[4,5-b]pyridin-3-yl]-4-oxo-butanoate] | 10 | 0 | 10 | 20 | 90 | 90 | 0 | 90 | – | – | – | – | – | – |
| CC(=O)N1CSc2cc(Br)c(-c3cccc(Cl)c3F)nc21 [Example I-115] | – | – | – | – | – | – | – | – | 90 | 90 | 90 | 90 | 100 | 90 |
